This assay has as its target T1, HIV protease (Human immunodeficiency virus type 1 group M subtype B, UniProt P04585).
T1 construct: the protease expressed in Escherichia coli; made in house; host or cells: Escherichia coli
As to the kind of experiment: Assay for Inhibition of Microbial Expressed HIV Protease. The assay is classed as biochemical. Conditions: protease expressed in Escherichia coli; peptide substrate Val-Ser-Gln-Asn-(betanaphthyl)Ala-Pro-Ile-Val; 50 mM Na acetate, pH 5.5, 30° C., 1 hour; HPLC readout. As for the experimental part: Assay for Inhibition of Microbial Expressed HIV Protease
Inhibition studies of the reaction of the protease expressed in Escherichia coli with a peptide substrate [Val-Ser-Gln-Asn-(betanaphthyl)Ala-Pro-Ile-Val, 0.5 mg/mL at the time the reaction is initiated] were in 50 mM Na acetate, pH 5.5, at 30° C. for 1 hour. Various concentrations of inhibitor in 1.0 ul DMSO were added to 25 ul of the peptide solution in water. The reaction is initiated by the addition of 15 ul of 0.33 nM protease […] in a solution of 0.133 M Na acetate pH 5.5 and 0.26% bovine serum albumin. The reaction was quenched with 160 ul of 5% phosphoric acid. Products of the reaction were separated by HPLC (VYDAC wide pore 5 cm C-18 reverse phase, acetonitrile gradient, 0.1% phosphoric acid). The extent of inhibition of the reaction was determined from the peak heights of the products.

One may read the IC50 as the concentration needed to halve the response being measured. The low end stands for higher potency, the high end for lower potency. As to `CC(C)CN(CC(O)CC(Cc1ccccc1)C(=O)NC1c2ccccc2CC1O)C(=O)OCc1ccccc1` [Compound A, N-(2'(R)-hydroxy-1'(S)-indanyl)-2(R)-phenylmethyl-4(S)-hydroxy-5-[((2'''-methyl)propyl)-benzyloxycarbonyl]-amino-pentaneamide], the IC50 lay within 8 to 9 nM.

(Values after patent publication US5476874A, “New HIV protease inhibitors” (Merck & Co., Inc., priority 1994, dated 1995).)
